test system: MCH receptors; test: MCH receptor activity class (method not given); settings: class 1-3 by percent of control at 10^-7 M or IC50

Row | SMILES | class
1 | CN(C)c1ccnc(N[C@H]2CC[C@@H](CNC(=O)c3c(Cl)cc(Cl)cc3Cl)CC2)n1 [compound 451] | 2 (Class 2: The value of percent of control at 10^−7 M was from 40% to 60% or the value of IC′50 was from 50 nM to 200 nM.)
2 | CN(C)c1ccnc(N[C@H]2CC[C@@H](CNC(=O)/C=C/c3ccccc3Cl)CC2)n1 [compound 452] | 2 (Class 2: The value of percent of control at 10^−7 M was from 40% to 60% or the value of IC′50 was from 50 nM to 200 nM.)
3 | Cc1ccc(Cl)c(C(=O)NC[C@H]2CC[C@@H](Nc3nccc(N(C)C)n3)CC2)c1F [compound 453] | 3 (Class 3 The value of percent of control at 10^−7 M was more than 60% or the value of IC50 was more than 200 nM.)
4 | CN(C)c1ccnc(N[C@H]2CC[C@@H](CNC(=O)c3c(F)ccc(F)c3Cl)CC2)n1 [compound 454] | 3 (Class 3 The value of percent of control at 10^−7 M was more than 60% or the value of IC50 was more than 200 nM.)
5 | Cc1cccc(C(=O)NC[C@H]2CC[C@@H](Nc3nccc(N(C)C)n3)CC2)c1C [compound 455] | 3 (Class 3 The value of percent of control at 10^−7 M was more than 60% or the value of IC50 was more than 200 nM.)
6 | COc1cccc(C(=O)N[C@H]2CC[C@@H](Nc3nc4c(c(N(C)C)n3)CCCC4)CC2)c1 [compound 456] | 1 (Class 1: The value of percent of control at 10^−7 M was less than 40% or the value of IC50 was less than 50 nM.)
7 | CN(C)c1nc(N[C@H]2CC[C@@H](NC(=O)c3cccc(Br)c3)CC2)nc2c1CCCC2 [compound 457] | 1 (Class 1: The value of percent of control at 10^−7 M was less than 40% or the value of IC50 was less than 50 nM.)
8 | CN(C)c1nc(N[C@H]2CC[C@@H](NC(=O)c3ccc(Br)cc3)CC2)nc2c1CCCC2 [compound 458] | 2 (Class 2: The value of percent of control at 10^−7 M was from 40% to 60% or the value of IC′50 was from 50 nM to 200 nM.)
9 | CN(C)c1nc(N[C@H]2CC[C@@H](NC(=O)c3ccc4nonc4c3)CC2)nc2c1CCCC2 [compound 459] | 1 (Class 1: The value of percent of control at 10^−7 M was less than 40% or the value of IC50 was less than 50 nM.)
10 | CN(C)c1nc(N[C@H]2CC[C@@H](NC(=O)c3cccc(Cl)c3)CC2)nc2c1CCCC2 [compound 460] | 1 (Class 1: The value of percent of control at 10^−7 M was less than 40% or the value of IC50 was less than 50 nM.)
11 | CN(C)c1nc(N[C@H]2CC[C@@H](NC(=O)c3ccc(Cl)cc3)CC2)nc2c1CCCC2 [compound 461] | 1 (Class 1: The value of percent of control at 10^−7 M was less than 40% or the value of IC50 was less than 50 nM.)
12 | CN(C)c1nc(N[C@H]2CC[C@@H](NC(=O)/C=C/c3ccccc3)CC2)nc2c1CCCC2 [compound 462] | 3 (Class 3 The value of percent of control at 10^−7 M was more than 60% or the value of IC50 was more than 200 nM.)
13 | CN(C)c1nc(N[C@H]2CC[C@@H](NC(=O)c3ccc(Cl)c([N+](=O)[O-])c3)CC2)nc2c1CCCC2 [compound 463] | 1 (Class 1: The value of percent of control at 10^−7 M was less than 40% or the value of IC50 was less than 50 nM.)
14 | CN(C)c1nc(N[C@H]2CC[C@@H](NC(=O)Cc3ccc(Cl)cc3)CC2)nc2c1CCCC2 [compound 464, 2-(4-chlorophenyl)-N-(cis-4-{[4-(dimethylamino)-5,6,7,8-tetrahydroquinazolin-2-yl]amino}cyclohexyl)acetainide] | 1 (Class 1: The value of percent of control at 10^−7 M was less than 40% or the value of IC50 was less than 50 nM.)
15 | CN(C)c1nc(N[C@H]2CC[C@@H](NC(=O)c3cccc(C#N)c3)CC2)nc2c1CCCC2 [compound 465] | 1 (Class 1: The value of percent of control at 10^−7 M was less than 40% or the value of IC50 was less than 50 nM.)
16 | CN(C)c1nc(N[C@H]2CC[C@@H](NC(=O)c3cc(Cl)cc(Cl)c3)CC2)nc2c1CCCC2 [compound 466, 3,5-dichloro-N-(cis-4-{[4-(dimethylamino)-5,6,7,8-tetrahydroquinazolin-2-yl]amino}cyclohexyl)benzamide] | 1 (Class 1: The value of percent of control at 10^−7 M was less than 40% or the value of IC50 was less than 50 nM.)
17 | CN(C)c1nc(N[C@H]2CC[C@@H](NC(=O)c3ccc(Cl)c(Cl)c3)CC2)nc2c1CCCC2 [compound 467, 3,4-dichloro-N-(cis-4-{[4-(dimethylamino)-5,6,7,8-tetrahydroquinazolin-2-yl]amino}cyclohexyl)benzamide] | 1 (Class 1: The value of percent of control at 10^−7 M was less than 40% or the value of IC50 was less than 50 nM.)
18 | CN(C)c1nc(N[C@H]2CC[C@@H](NC(=O)C(c3ccccc3)c3ccccc3)CC2)nc2c1CCCC2 [compound 468] | 1 (Class 1: The value of percent of control at 10^−7 M was less than 40% or the value of IC50 was less than 50 nM.)
19 | CN(C)c1nc(N[C@H]2CC[C@@H](NC(=O)c3ccc(F)c(F)c3)CC2)nc2c1CCCC2 [compound 469] | 1 (Class 1: The value of percent of control at 10^−7 M was less than 40% or the value of IC50 was less than 50 nM.)
20 | CN(C)c1nc(N[C@H]2CC[C@@H](NC(=O)c3cc(F)cc(F)c3)CC2)nc2c1CCCC2 [compound 470] | 1 (Class 1: The value of percent of control at 10^−7 M was less than 40% or the value of IC50 was less than 50 nM.)
21 | COc1ccc(OC)c(CC(=O)N[C@H]2CC[C@@H](Nc3nc4c(c(N(C)C)n3)CCCC4)CC2)c1 [compound 471] | 3 (Class 3 The value of percent of control at 10^−7 M was more than 60% or the value of IC50 was more than 200 nM.)
22 | CCSc1ncccc1C(=O)N[C@H]1CC[C@@H](Nc2nc3c(c(N(C)C)n2)CCCC3)CC1 [compound 472] | 3 (Class 3 The value of percent of control at 10^−7 M was more than 60% or the value of IC50 was more than 200 nM.)
23 | CN(C)c1nc(N[C@H]2CC[C@@H](NC(=O)c3ccc(F)cc3)CC2)nc2c1CCCC2 [compound 473] | 1 (Class 1: The value of percent of control at 10^−7 M was less than 40% or the value of IC50 was less than 50 nM.)
24 | CN(C)c1nc(N[C@H]2CC[C@@H](NC(=O)c3cc(F)cc(C(F)(F)F)c3)CC2)nc2c1CCCC2 [compound 474] | 1 (Class 1: The value of percent of control at 10^−7 M was less than 40% or the value of IC50 was less than 50 nM.)
25 | CN(C)c1nc(N[C@H]2CC[C@@H](NC(=O)c3cc(F)c(Cl)cc3Cl)CC2)nc2c1CCCC2 [compound 475] | 3 (Class 3 The value of percent of control at 10^−7 M was more than 60% or the value of IC50 was more than 200 nM.)
26 | CCCCCC(=O)N[C@H]1CC[C@@H](Nc2nc3c(c(N(C)C)n2)CCCC3)CC1 [compound 476] | 2 (Class 2: The value of percent of control at 10^−7 M was from 40% to 60% or the value of IC′50 was from 50 nM to 200 nM.)
27 | CN(C)c1nc(N[C@H]2CC[C@@H](NC(=O)c3ccc(I)cc3)CC2)nc2c1CCCC2 [compound 477] | 3 (Class 3 The value of percent of control at 10^−7 M was more than 60% or the value of IC50 was more than 200 nM.)
28 | CSc1ncccc1C(=O)N[C@H]1CC[C@@H](Nc2nc3c(c(N(C)C)n2)CCCC3)CC1 [compound 478] | 3 (Class 3 The value of percent of control at 10^−7 M was more than 60% or the value of IC50 was more than 200 nM.)
29 | Cc1ccc(C(=O)N[C@H]2CC[C@@H](Nc3nc4c(c(N(C)C)n3)CCCC4)CC2)cc1[N+](=O)[O-] [compound 479] | 1 (Class 1: The value of percent of control at 10^−7 M was less than 40% or the value of IC50 was less than 50 nM.)
